Assay results as given in patent EP0471756B1, “SACCHARIN DERIVATIVES USEFUL AS PROTEOLYTIC ENZYME INHIBITORS AND PREPARATION THEREOF” (priority 1989, dated 1990).
Like-named read-outs stand apart in the source and are kept apart here.

Biological target: T1, human leukocyte elastase (HLE) (Homo sapiens, UniProt P08246)
T1 sequence (P08246 30-267): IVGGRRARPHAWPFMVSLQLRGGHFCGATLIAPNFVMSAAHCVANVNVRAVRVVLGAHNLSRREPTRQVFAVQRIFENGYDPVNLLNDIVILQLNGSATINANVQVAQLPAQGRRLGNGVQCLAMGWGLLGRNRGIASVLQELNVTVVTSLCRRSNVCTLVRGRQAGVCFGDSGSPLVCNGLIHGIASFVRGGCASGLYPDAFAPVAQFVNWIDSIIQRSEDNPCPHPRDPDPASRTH
Experiment: Inactivation of human leukocyte elastase: kon measured, Ki* = koff/kon calculated
Format: biochemical
Conditions: for kinact/KI: read-out: 10^-3 x kon; for Ki: Ki* = koff/kon, not a truly reversible inhibition constant

[1] = Elastase, rate of inactivation kon = kobs/[I], value is kon x 10^-3

Description: Thus, instead of measuring a Ki, a Ki* is calculated which is defined as the ratio of the koff/kon, the rate of reactivation of the enzyme to the rate of inactivation of the enzyme. The values of koff and kon are measured and Ki* is then calculated.
The rate of inactivation, kon, of enzymatic activity was determined for the compounds tested by measuring the enzyme activity of an aliquot of the respective enzyme as a function of time after addition of the test compound. […] The rate of inactivation is then equal to kon =(kobs)/([I]) [formula] where [I] is the concentration of the inhibiting compound.
The reactivation constant, koff, is similarly determined and the inhibition constant, Ki*, is then calculated as Ki * = koff /kon [formula]

Row | SMILES | kinact/KI [1] [M⁻¹ s⁻¹] | also measured
1 | O=C1c2c(Cl)cccc2S(=O)(=O)N1CSc1nnnn1-c1ccccc1 [Example 4, 4-chloro-2-(1-phenyl-1H-tetrazol-5-ylthiomethyl) saccharin] | 20000 | –
2 | CCCCCCC(=O)Nc1cccc(-n2nnnc2SCN2C(=O)c3ccccc3S2(=O)=O)c1 [Example 7, 2-[1-(3-heptanamidophenyl)-1H-tetrazol-5-ylthiomethyl]saccharin] | 5200 | –
3 | O=C1c2ccccc2S(=O)(=O)N1CSc1nnnn1C1CCCCC1 [Example 9, 2-(1-cyclohexyl-1H-tetrazol-5-ylthiomethyl)saccharin] | 2500 | Ki (Elastase): 32 nM
4 | O=C1c2cc([N+](=O)[O-])ccc2S(=O)(=O)N1CSc1nnnn1-c1ccccc1 [Example 11, 5-nitro-2-(1-phenyl-1H-tetrazol-5-ylthiomethyl)saccharin] | – | kinact/KI: 4600 M⁻¹ s⁻¹
5 | O=C1c2ccccc2S(=O)(=O)N1COc1ccc([N+](=O)[O-])cc1 [Example 15, 2-(4-nitrophenoxymethyl)saccharin] | 3200 | –
6 | COC(=O)C(Sc1nnnn1-c1ccccc1)N1C(=O)c2ccccc2S1(=O)=O (centres unmarked) [Example 17, methyl 2-(1-phenyl-1H-tetrazol-5-ylthio)2-(2-saccharinyl)acetate] | 2900 | –
7 | O=C1c2c(Br)cccc2S(=O)(=O)N1CCl [Example 21, 2-chloromethyl-4-bromosaccharin] | 950000 | –
8 | COc1cccc2c1C(=O)N(CCl)S2(=O)=O [Example 22A, 2-chloromethyl-4-methoxysaccharin] | 12400 | –
9 | CCC(C)c1cccc2c1C(=O)N(CCl)S2(=O)=O (centres unmarked) [Example 22B, 2-chloromethyl-4-sec.-butylsaccharin] | 2400 | –
10 | CCC(CC)c1cccc2c1C(=O)N(CCl)S2(=O)=O [Example 22C, 2-chloromethyl-4-(3-pentyl)saccharin] | 105000 | –
11 | O=C1c2cccc(Cl)c2S(=O)(=O)N1CCl [Example 22D] | 75800 | –
12 | CC(C)c1cccc2c1C(=O)N(CCl)S2(=O)=O [Example 22E] | 4700 | –
13 | COc1ccc2c(c1OC)C(=O)N(CCl)S2(=O)=O [Example 22F] | 20000 | –
14 | COC(=O)c1cccc2c1C(=O)N(CCl)S2(=O)=O [Example 22G] | 3000 | –
15 | CCOc1cccc2c1C(=O)N(CCl)S2(=O)=O [Example 22H] | 25000 | –
16 | O=C1c2ccccc2S(=O)(=O)N1CF [Example 27, 2-fluoromethylsaccharin] | 7500 | –
17 | CCc1cccc2c1C(=O)N(CCl)S2(=O)=O [Example 28] | – | 10^-3 x kon [1]: 50.7 M^-1 sec^-1
18 | Cc1ccc(C)c2c1C(=O)N(CCl)S2(=O)=O [Example 29, 2-chloromethyl-4,7-dimethylsaccharin] | 1100 | –
19 | O=C(O)c1cccc(-n2nnn(CN3C(=O)c4ccccc4S3(=O)=O)c2=S)c1 [Example 30-O] | 30 | –
20 | Cc1nnc(SCN2C(=O)c3ccccc3S2(=O)=O)s1 [Example 30AB] | 2800 | –
21 | Cn1cnnc1SCN1C(=O)c2ccccc2S1(=O)=O [Example 30AC] | 190 | Ki (Elastase): 246 nM
22 | CSc1nn(CN2C(=O)c3ccccc3S2(=O)=O)c(=S)s1 [Example 30AD] | 7000 | –
23 | O=C1c2ccccc2S(=O)(=O)N1CSc1nc(-c2ccccc2)ns1 [Example 30AF] | – | 10^-3 x kon [1]: 4.2 M^-1 sec^-1
24 | O=C1c2cccc(Cl)c2S(=O)(=O)N1CSc1nnnn1-c1ccccc1 [Example 30AG] | – | Ki (Elastase): > 1000 nM
25 | O=C1c2ccccc2S(=O)(=O)N1CSc1nnc(S)s1 [Example 30AH, 2-(5-mercapto-1,3,4-thiadiazol-2-ylthiomethyl)saccharin] | 1100 | –
26 | CC(C)c1cccc2c1C(=O)N(Cn1nnn(-c3ccccc3)c1=S)S2(=O)=O [Example 30AJ] | 1800 | –
27 | Cc1nnc(SCN2C(=O)c3c(C(C)C)cccc3S2(=O)=O)s1 [Example 30AM] | 12300 | –

Row | SMILES | kinact/KI [1] [M⁻¹ s⁻¹] | also measured
28 | CC(C)c1cccc2c1C(=O)N(CSc1nnnn1C)S2(=O)=O [Example 30AN] | 19000 | –
29 | CCOC(=O)Cn1nnnc1SCN1C(=O)c2ccccc2S1(=O)=O [Example 30AP] | 1300 | –
30 | O=C1c2ccccc2S(=O)(=O)N1CSc1nnnn1CCO [Example 30AQ, 2-[1-(2-hydroxyethyl)-1H-tetrazol-5-ylthiomethyl]saccharin] | 900 | –
31 | COC(=O)c1cn(-c2ccccc2)c(SCN2C(=O)c3ccccc3S2(=O)=O)n1 [Example 30AR] | 300 | –
32 | CN(C)C(=O)Cn1nnnc1SCN1C(=O)c2ccccc2S1(=O)=O [Example 30AS] | 1700 | –
33 | CCOc1cccc2c1C(=O)N(CSc1nnnn1-c1ccccc1)S2(=O)=O [Example 30AT] | 45300 | Ki (Elastase): 3 nM
34 | CC(C)Oc1cccc2c1C(=O)N(CSc1nnnn1-c1ccccc1)S2(=O)=O [Example 30AU] | 8900 | Ki (Elastase): 17.5 nM
35 | CCc1cccc2c1C(=O)N(CSc1nnnn1CC(=O)N(C)C)S2(=O)=O [Example 30AV] | 7600 | –
36 | CC(C)c1cccc2c1C(=O)N(CSc1nnnn1CC(=O)N(C)C)S2(=O)=O [Example 30AW] | 30000 | –
37 | CCOc1cccc2c1C(=O)N(CSc1nnnn1CC(=O)N(C)C)S2(=O)=O [Example 30AX] | 7500 | –
38 | O=C1c2ccccc2S(=O)(=O)N1COc1c(Cl)cccc1Cl [Example 30BB] | – | Ki (Elastase): > 500 nM
39 | O=C1c2c(-c3ccccc3)cccc2S(=O)(=O)N1CSc1nnnn1-c1ccccc1 [Example 30BC] | 5800 | Ki (Elastase): 80 nM
40 | O=C1c2ccccc2S(=O)(=O)N1CSc1nc2ccc([N+](=O)[O-])cc2s1 [Example 30BD] | 11700 | –
41 | O=C1c2ccccc2S(=O)(=O)N1CSc1nc2ccc([N+](=O)[O-])cc2o1 [Example 30BE] | 7400 | –
42 | O=C1c2ccccc2C(=O)N1CN1C(=O)c2ccccc2S1(=O)=O [Example 30BF] | – | 10^-3 x kon [1]: 0.02 M^-1 sec^-1
43 | O=C1c2ccccc2S(=O)(=O)N1CSc1nnnn1CCN1CCOCC1 [Example 30BG] | 1700 | –
44 | O=C1c2ccccc2S(=O)(=O)N1Cn1nnn(-c2ccccc2)c1=O [Example 30BH] | – | Ki (Elastase): > 10000 nM
45 | CC(C)c1cccc2c1C(=O)N(CSc1nnnn1CCN1CCOCC1)S2(=O)=O [Example 30BI] | 39000 | –
46 | Nc1cccc(-n2nnnc2SCN2C(=O)c3ccccc3S2(=O)=O)c1 [Example 30C, 2-[1-(3-aminophenyl)-1H-tetrazol-5-ylthiomethyl]saccharin] | 2500 | –
47 | O=C(O)c1ccc(-n2nnnc2SCN2C(=O)c3ccccc3S2(=O)=O)cc1 [Example 30D] | 800 | –
48 | COC(=O)c1cc(C(=O)OC)cc(-n2nnnc2SCN2C(=O)c3ccccc3S2(=O)=O)c1 [Example 30E] | 7300 | –
49 | O=C1c2ccccc2S(=O)(=O)N1CSc1ncccn1 [Example 30F, 2-(2-pyrimidylthiomethyl)saccharin] | – | Ki (Elastase): > 85000 nM
50 | O=C1C=Cc2ccc(OCN3C(=O)c4ccccc4S3(=O)=O)c3cccc1c23 [Example 30G] | 9300 | –
51 | O=C1c2ccccc2S(=O)(=O)N1CSc1nncn1-c1ccccc1 [Example 30I] | 450 | –
52 | CCc1cccc2c1C(=O)N(CSc1nnnn1CCN1CCOCC1)S2(=O)=O [Example 30J] | 14000 | –
53 | CCOc1ccc(OCCOCCOC)c2c1C(=O)N(CSc1nnnn1-c1ccccc1)S2(=O)=O [Example 30L] | 6500 | –
54 | COCCOCCOc1ccc(OC)c2c1S(=O)(=O)N(CSc1nnnn1-c1ccccc1)C2=O [Example 30M] | 1000 | –
